For orientation: mortality means the share of the test organisms that died.

SMILES strings stand for the structures.

These results are taken from ChEMBL document CHEMBL3046239, “Lethal and Antifeedant Substance from Rhizome of Alpinia galanga SW. (Zingiberaceae)” (1998).

Holding throughout (type): functional
Assay [1] relates to Callosobruchus chinensis. Kind of assay: Lethal effect on Callosobruchus chinensis assessed as mortality measured per insect after 24 hr treatment by topical application method.
In assay [2] the test system is Plutella xylostella. Kind of assay: Antifeedant effect in Plutella xylostella (diamondback moth) in compound treated fresh cabbage leaves assessed as feeding reduction at 106.2 ug/cm'2 by no-choice leaf disk method.
Assay [3] deals with Plutella xylostella. Kind of assay: Lethal effect on Plutella xylostella (diamondback moth) in fresh cabbage leaves assessed as mortality at 10 ug/insect measured 24 hr after treatment by topical application method.
The test system of assay [4] is Callosobruchus chinensis. Kind of assay: Lethal effect on Callosobruchus chinensis assessed as mortality at 8 ug/insect measured 24 hr after treatment by topical application method.
In assay [5] the test system is Plutella xylostella. Kind of assay: Antifeedant effect in Plutella xylostella (diamondback moth) in compound treated fresh cabbage leaves assessed as feeding reduction at 66.4 ug/cm'2 by no-choice leaf disk method.
Assay [6] has as its system Plutella xylostella. Put plainly: Lethal effect on Plutella xylostella (diamondback moth) in fresh cabbage leaves assessed as mortality measured per insect after 48 hr treatment by topical application method.
In assay [7] the test system is Plutella xylostella. Put plainly: Lethal effect on Plutella xylostella (diamondback moth) in fresh cabbage leaves assessed as mortality at 8 to 10 ug/insect measured 48 hr after treatment by topical application method.

As to `C=C[C@H](OC(C)=O)c1ccc(OC(C)=O)cc1` [1'-ACETOXYCHAVICOL ACETATE], the values for the LD50 in the assay with Callosobruchus chinensis [1] and with Plutella xylostella [6] were 3 µg and 4.5 µg, respectively. The AFI was 98.8% with Plutella xylostella [2] and 88.5% in the assay on Plutella xylostella [5]. Also, the mortality with Plutella xylostella [3] worked out at 83.3%; with Callosobruchus chinensis [4], 95%; with Plutella xylostella [7], 100%.
